Measurements: patent US9426991B2, “Synergistic weed control from applications of aminocyclopyrachlor and picloram” (Dow AgroSciences LLC, priority 2012, dated 2016)

Test system: broomweed (Sida acuta, SIDAC)
Assay: Field trial, post-emergence foliar application, weed control rating 0-100%
Type: in vivo
Conditions: for Aminocyclopyrachlor Mean % weed control: 150 g ae/ha alone; for Picloram-Potassium Mean % weed control: 180 g ae/ha alone
Excerpt: The (a) aminocyclopyrachloror an agriculturally acceptable salt or ester thereof is mixed with or applied in combination with (b) picloram or an agriculturally acceptable salt or ester thereof in an amount sufficient to induce a synergistic herbicidal effect. […] As described in the Herbicide Handbook of the Weed Science Society of America, Ninth Edition, 2007, p. 429, “‘synergism’ [is] an interaction of two or more factors such that the effect when combined is greater than the predicted effect based on the response to each factor applied separately.” Synergistic in the herbicide context can mean that the use of (a) and (b) as defined above results in an increased weed control effect compared to the weed control effects that are possible with the use of (a) or (b) alone. In some embodiments, the damage or injury to the undesired vegetation caused by the compositions and methods disclosed herein is evaluated using a scale from 0% to 100%, when compared with the untreated control vegetation, wherein 0% indicates no damage to the undesired vegetation and 100% indicates complete destruction of the undesired vegetation. […] 22 (1967)
Field trials were conducted with applications made to established grassland with naturally occurring weed populations. The target plants were treated with postemergence foliar applications when they were at the beginning of the flowering stage and 30 centimeters (11.8 inches) tall. All treatments were applied using a randomized complete block trial design, with four replications per treatment.
Treatments consisted of aminocyclopyrachlor in acid form and picloram-potassium, each in water and applied alone or in combination. Spray solutions were prepared using an appropriate amount of dilution to form a 2.0-liter (L) aqueous spray solution with active ingredients in single and two-way combinations. Formulated compounds were applied to the plant material with a backpack sprayer equipped with 8003 nozzles calibrated to deliver 400 liters per hectare (L/ha) at a spray height of 18-20 in (45-51 cm) above average plant canopy.
The treated plant was broomweed (Sida acuta, SIDAC). The treated plots and control plots were rated blind at various intervals after application. Ratings were based on a scale of 0-100%, as discussed above, wherein 0% indicates no damage to the undesired vegetation and 100% indicates complete destruction of the undesired vegetation
Colby's equation was used to determine the herbicidal effects expected from the mixtures, as described above. The results were measured at 59 days, 75 days, and 88 days after the first application of the compositions. […] The herbicide tank mix combinations tested, application rates and ratios employed, plant species tested, and results are given below.

| Structure (SMILES) | Aminocyclopyrachlor Mean % weed control (59 days after application) [%] | Aminocyclopyrachlor Mean % weed control (75 days after application) [%] | Aminocyclopyrachlor Mean % weed control (88 days after application) [%] | Picloram-Potassium Mean % weed control (59 days after application) [%] | Picloram-Potassium Mean % weed control (75 days after application) [%] | Picloram-Potassium Mean % weed control (88 days after application) [%] |
| --- | --- | --- | --- | --- | --- | --- |
| Nc1nc(C2CC2)nc(C(=O)O)c1Cl [Aminocyclopyrachlor, 6-amino-5-chloro-2-cyclopropylpyrimidine-4-carboxylic acid] | 42.5 | 36.3 | 41.3 |  |  |  |
| Nc1c(Cl)c(Cl)nc(C(=O)O)c1Cl [Picloram-Potassium, 4-amino-3,5,6-trichloro-2-pyridinecarboxylic acid] |  |  |  | 6.3 | 3.8 | 5.5 |
